From patent US20070004660A1, “Synergistic Modulation of Flt3 Kinase Using Alkylquinolines and Alkylquinazolines” (priority 2005, published 2007)

Legend:
[1] = biological target: T1, isolated kinase domain of the human FLT3 receptor (a.a. 571-993) (Homo sapiens, UniProt P36888); assay: FLT3 fluorescence polarization kinase assay; assay type: biochemical; settings: 150 uM ATP; uncertainty ±10%
T1 construct: human FLT3 receptor (a.a. 571-993)
T1 sequence (P36888 571-993): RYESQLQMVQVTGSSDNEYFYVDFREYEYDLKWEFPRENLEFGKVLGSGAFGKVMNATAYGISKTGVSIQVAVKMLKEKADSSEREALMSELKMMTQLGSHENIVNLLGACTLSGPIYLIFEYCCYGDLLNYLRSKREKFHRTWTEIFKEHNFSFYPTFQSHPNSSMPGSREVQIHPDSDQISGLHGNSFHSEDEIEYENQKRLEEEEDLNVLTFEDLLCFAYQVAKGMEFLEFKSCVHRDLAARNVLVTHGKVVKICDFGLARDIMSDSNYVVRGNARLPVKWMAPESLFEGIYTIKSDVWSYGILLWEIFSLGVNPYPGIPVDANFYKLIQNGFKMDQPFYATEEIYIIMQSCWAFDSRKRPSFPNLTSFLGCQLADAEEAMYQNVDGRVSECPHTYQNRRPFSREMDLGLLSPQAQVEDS
Protocol: The FLT3 FP assay utilizes the fluorescein-labeled phosphopeptide and the anti-phosphotyrosine antibody included in the Panvera Phospho-Tyrosine Kinase Kit (Green) supplied by Invitrogen. When FLT3 phosphorylates polyGlu4Tyr, the fluorescein-labeled phosphopeptide is displaced from the anti-phosphotyrosine antibody by the phosphorylated poly Glu4Tyr, thus decreasing the FP value. The FLT3 kinase reaction is incubated at room temperature for 30 minutes under the following conditions: 10 nM FLT3 571-993, 20 ug/mL poly Glu4Tyr, 150 uM ATP, 5 mM MgCl2, 1% compound in DMSO. The kinase reaction is stopped with the addition of EDTA. The fluorescein-labeled phosphopeptide and the anti-phosphotyrosine antibody are added and incubated for 30 minutes at room temperature.
All data points are an average of triplicate samples. Inhibition and IC50 data analysis was done with GraphPad Prism using a non-linear regression fit with a multiparamater, sigmoidal dose-response (variable slope) equation.

MV4-11 cells = assay: Inhibition of MV4-11 cell proliferation (CellTiterGlo, 72 h); assay type: cell-based; settings: Homo sapiens; 72 h growth inhibition; uncertainty ±20%
Protocol: MV4-11 cells cannot grow and survive without active FLT3ITD.
To measure proliferation inhibition by test compounds, the luciferase based CellTiterGlo reagent (Promega), which quantifies total cell number based on total cellular ATP concentration, was used. Cells are plated at 10,000 cells per well in 100 ul of in RPMI media containing penn/strep, 10% FBS and 1 ng/ml GM-CSF or 1 ng/ml IL-3 for MV4-11 and Baf3 cells respectively.
Compound dilutions or 0.1% DMSO (vehicle control) are added to cells and the cells are allowed to grow for 72 hours at standard cell growth conditions (37° C., 5% CO2). For activity measurements in MV4-11 cells grown in 50% plasma, cells were plated at 10,000 cells per well in a 1:1 mixture of growth media and human plasma (final volume of 100 μL). To measure total cell growth an equal volume of CellTiterGlo reagent was added to each well, according to the manufacturer's instructions, and luminescence was quantified. Total cell growth was quantified as the difference in luminescent counts (relative light units, RLU) of cell number at Day 0 compared to total cell number at Day 3 (72 hours of growth and/or compound treatment). One hundred percent inhibition of growth is defined as an RLU equivalent to the Day 0 reading. Zero percent inhibition was defined as the RLU signal for the DMSO vehicle control at Day 3 of growth. All data points are an average of triplicate samples. […] Inhibition and IC50 data analysis was done with GraphPad Prism using a non-linear regression fit with a multiparamater, sigmoidal dose-response (variable slope) equation.
MV4-11 cells express the FLT3 internal tandem duplication mutation, and thus are entirely dependent upon FLT3 activity for growth. […] In contrast, the Baf3 cell proliferation is driven by the cytokine IL-3 and thus are used as a non-specific toxicity control for test compounds.

IC50 [1] [µM] | IC50 (MV4-11 cells) [µM] | SMILES
0.001 | 0.265 | CS(=O)(=O)N1CC[C@@H](Oc2ccc3c(C4CCN(C(=O)Nc5ccc(N6CCCC6)cc5)CC4)ncnc3c2)C1 [Compound 177, (R)-4-[7-(1-Methanesulfonyl-pyrrolidin-3-yloxy)-quinazolin-4-yl]-piperidine-1-carboxylic acid (4-pyrrolidin-1-yl-phenyl)-amide]
10.2 | 0.227 | CN1CCN(c2ccc3ncnc(C4CCN(C(=O)Nc5ccc(N6CCOCC6)cc5)CC4)c3c2)CC1 [Compound 198, 4-[6-(4-Methyl-piperazin-1-yl)-quinazolin-4-yl]-piperidine-1-carboxylic acid (4-morpholin-4-yl-phenyl)-amide]
0.021 | 0.006 | COCC(=O)N1CCN(c2ccc3c(C4CCN(C(=O)Nc5ccc(N6CCCC6)cc5)CC4)ncnc3c2)CC1 [Compound 200]
0.297 | 0.149 | COc1ccc2ncnc(C3CCN(C(=O)Nc4ccc(OC(C)C)cc4)CC3)c2c1 [Compound 203, 4-(6-Methoxy-quinazolin-4-yl)-piperidine-1-carboxylic acid (4-isopropoxy-phenyl)-amide]
0.306 | > 1 | CC(C)Oc1ccc(NC(=O)N2CCC(c3ncnc4cc(OCCCc5nnn[nH]5)ccc34)CC2)cc1 [Compound 204, 4-{7-[3-(1H-Tetrazol-5-yl)-propoxy]-quinazolin-4-yl}-piperidine-1-carboxylic acid (4-isopropoxy-phenyl)-amide]
0.002 | 0.003 | COc1cc2c(C3CCN(C(=O)Nc4ccc(N5CCCC5)cc4)CC3)ncnc2cc1OCCCN1CCN(C)CC1 [Compound 208, 4-{6-Methoxy-7-[3-(4-methyl-piperazin-1-yl)-propoxy]-quinazolin-4-yl}-piperidine-1-carboxylic acid (4-pyrrolidin-1-yl-phenyl)-amide]
0.094 | 0.29 | CC(C)c1ccc(NC(=O)N2CCC(c3ccnc4ccccc34)CC2)cc1 [Example 5, 4-Quinolin-4-yl-piperidine-1-carboxylic acid (4-isopropyl-phenyl)-amide]
6.6 | 1.1 | COc1cc2ncnc(C3CCN(C(=O)Nc4ccc(N5CCN(C)CC5)cc4)CC3)c2cc1OC [Example 20, 4-(6,7-Dimethoxy-quinazolin-4-yl)-piperidine-1-carboxylic acid [4-(4-methyl-piperazin-1-yl-phenyl)]-amide]
2 | 4.1 | COc1cc2ncnc(C3CCN(C(=O)Nc4ccc5c(c4)CCO5)CC3)c2cc1OC [Example 27, 4-(6,7-Dimethoxy-quinazolin-4-yl)-piperidine-1-carboxylic acid (2,3-dihydro-benzofuran-5-yl)-amide]
0.73 | 3.3 | COc1ccc(NC(=O)N2CCC(c3ncnc4cc(OC)c(OC)cc34)CC2)cc1 [Example 41, 4-(6,7-Dimethoxy-quinazolin-4-yl)-piperidine-1-carboxylic acid (4-methoxy-phenyl)-amide]
> 10 | > 10 | COc1cc2ncnc(C3CCN(C(=O)NC4CCCCC4)CC3)c2cc1OC [Example 42, 4-(6,7-Dimethoxy-quinazolin-4-yl)-piperidine-1-carboxylic acid cyclohexylamide]
0.99 | 2 | COc1cc2ncnc(C3CCN(C(=O)Nc4ccc(C(F)(F)F)cc4)CC3)c2cc1OC [Example 46, 4-(6,7-Dimethoxy-quinazolin-4-yl)-piperidine-1-carboxylic acid (4-trifluoromethyl-phenyl)-amide]
1.6 | 1.8 | COc1cc2ncnc(C3CCN(C(=O)Nc4ccc(C)cc4)CC3)c2cc1OC [Example 48, 4-(6,7-Dimethoxy-quinazolin-4-yl)-piperidine-1-carboxylic acid p-tolylamide]
0.083 | 0.131 | COc1cc2ncnc(C3CCN(C(=O)Nc4ccc(OC(F)(F)F)cc4)CC3)c2cc1OC [Example 50, 4-(6,7-Dimethoxy-quinazolin-4-yl)-piperidine-1-carboxylic acid (4-trifluoromethoxy-phenyl)-amide]
0.027 | 0.008 | COc1cc2ncnc(C3CCN(C(=O)Nc4ccc(N5CCCCCC5)cc4)CC3)c2cc1OC [Example 70, 4-(6,7-Dimethoxy-quinazolin-4-yl)-piperidine-1-carboxylic acid (4-azepan-1-yl-phenyl)-amide]
0.139 | 0.11 | COc1cc2ncnc(C3CCN(C(=O)Nc4ccc(N5CCCCC5)c(Cl)c4)CC3)c2cc1OC [Example 71, 4-(6,7-Dimethoxy-quinazolin-4-yl)-piperidine-1-carboxylic acid (3-chloro-4-piperidin-1-yl-phenyl)-amide]
2.2 | 1 | CN1CCN(CCCOc2ccc3c(C4CCN(C(=S)Nc5ccc(N6CCOCC6)nc5)CC4)ncnc3c2)CC1 [Example 106, 4-{7-[3-(4-Methyl-piperazin-1-yl)-propoxy]-quinazolin-4-yl}-piperidine-1-carbothioic acid (6-morpholin-4-yl-pyridin-3-yl)-amide]
0.028 | 0.893 | O=C(Nc1ccc(N2CCOCC2)nc1)N1CCC(c2ncnc3cc(OCCCn4cnnc4)ccc23)CC1 [Example 110, 4-[7-(3-[1,2,4]Triazol-4-yl-propoxy)-quinazolin-4-yl]-piperidine-1-carboxylic acid (6-morpholin-4-yl-pyridin-3-yl)-amide]
0.019 | 0.625 | CN(C)c1c(NCCCOc2ccc3c(C4CCN(C(=O)Nc5ccc(N6CCCC6)nc5)CC4)ncnc3c2)c(=O)c1=O [Example 111, 4-{7-[3-(2-Dimethylamino-3,4-dioxo-cyclobut-1-enylamino)-propoxy]-quinazolin-4-yl}-piperidine-1-carboxylic acid (6-pyrrolidin-1-yl-pyridin-3-yl)-amide]
0.132 | 0.36 | O=C(NCCCOc1ccc2c(C3CCN(C(=O)Nc4ccc(N5CCOCC5)nc4)CC3)ncnc2c1)N1CCOCC1 [Example 113, Morpholine-4-carboxylic acid (3-{4-[1-(6-morpholin-4-yl-pyridin-3-ylcarbamoyl)-piperidin-4-yl]-quinazolin-7-yloxy}-propyl)-amide]
0.009 | 0.178 | O=C(Nc1ccc(N2CCCC2)nc1)N1CCC(c2ncnc3cc(OCCCn4cnnc4)ccc23)CC1 [Example 114, 4-[7-(3-[1,2,4]Triazol-4-yl-propoxy)-quinazolin-4-yl]-piperidine-1-carboxylic acid (6-pyrrolidin-1-yl-pyridin-3-yl)-amide]
0.025 | 0.096 | O=C(Nc1ccc(N2CCOCC2)cc1)N1CCC(c2ncnc3cc(N4CC[C@@H](O)C4)ccc23)CC1 [Example 126, (R)-4-[7-(3-Hydroxy-pyrrolidin-1-yl)-quinazolin-4-yl]-piperidine-1-carboxylic acid (4-morpholin-4-yl-phenyl)-amide]
0.001 | 0.009 | O=C(Nc1ccc(N2CCCC2)cc1)N1CCC(c2ncnc3cc(N4CC[C@H](O)C4)ccc23)CC1 [Example 129, (S)-4-[7-(3-Hydroxy-pyrrolidin-1-yl)-quinazolin-4-yl]-piperidine-1-carboxylic acid (4-pyrrolidin-1-yl-phenyl)-amide]
0.003 | 0.017 | CN(C)C(=O)N1CCN(c2ccc3c(C4CCN(C(=O)Nc5ccc(N6CCCC6)cc5)CC4)ncnc3c2)CC1 [Example 168, 4-{4-[1-(4-Pyrrolidin-1-yl-phenylcarbamoyl)-piperidin-4-yl]-quinazolin-7-yl}-piperazine-1-carboxylic acid dimethylamide]
